pIC50, pKd: −log10 of the molar value. Like-named read-outs stand apart in the source and are kept apart here.
Legend:
Aβ1-40 fibrils = molecular target: T1, Aβ1-40 fibrils (Homo sapiens, UniProt P05067); experiment: Thioflavin T (ThT) fluorescence assay of fibril formation; format: biochemical
T1 construct: Amyloid β-peptide(1-42) and amyloid β-peptide(1-40) trifluoroacetate salts; purchased Bachem (Bubendorf, Switzerland); host or cells: synthetic peptide
Method: For executing the ThT florescence assay, Aβ1-40 was dissolved to a concentration of 10 μM in 10% DMSO in PBS (pH 7.4). Aβ was immediately mixed with or without different concentrations of SY-81 or SY-83 at a 1:1 ration to a final concentration of 5 μM. The samples were incubated at 37° C. and the fibrillogenesis rate was followed by thioflavin T (ThT) fluorescence assay (excitation at 450 nm, 2.5 nm slit, and emission at 480 nm, 5 nm slit), over a course of 11 days to two weeks. ThT was added to a 10-fold diluted sample and measured using a Jobin Yvon Horiba Fluoromax 3 fluorimeter.
Though there is a growing recognition that the early Aβ oligomer intermediates and not the fibrils are the most toxic amyloid forms in AD, this debate has not been completely resolved. […] This method provides quantitative information on amyloid fibrils growth. β-amyloid was allowed to form amyloid fibrils either in the presence of different concentrations of SY-83 (FIGS. 5A, C) or SY-81 (FIGS. 5B, D) or with no inhibitor (WT). The fibrillization process was followed for several days until a plateau state was reached. Fluorescence values were measured throughout.
An end point experiment was further conducted with various concentrations of SY-81 and SY-83 in order to determine IC50. An IC50 of 50 nM and 100 nM was measured for SY-81 and SY-83, respectively. […]

[1] = Locomotion (climbing) assay in Alzheimer's Drosophila model; format: in vivo, Drosophila melanogaster; conditions: medium with 0.75 mg/ml, control males lacking Aβ1-42 expression
Method: In vivo studies (fly maintenance) were performed with Drosophila melanogaster flies grown on a standard corneal-molasses medium and kept at 25° C. As Drosophila females can store sperm cells in their bodies, crosses were conducted using virgin females collected no longer than 8 hours after eclosion at 25° C. or 18 hours after eclosion at 18° C. Adult offspring (F1) from the crosses were collected up to 9 days after the beginning of their eclosion at 25° C. in order to avoid collection of offspring from the next generation (F2). […]
The locomotion (climbing) assay was carried out in fresh rearing vials, each containing 10 flies of a given class (four classes mentioned below). […] The percent of flies which climbed to the top of the test tube was then calculated over time. […] Data were analyzed using standard ANOVA statistical exams.
In order to assess the effect of SY-81 and SY-83 in the living organism, a Drosophila model of Alzheimer's was used, based on the work of Crowther et al. (ibid) who generated transgenic flies that express the human Aβ1-42 protein conditionally, using the UAS-Gal4 expression system. […] These defects included progressive decline of locomotion in aged flies (measured as ability to climb up), and marked shortening of life span. […]
Suppression of climbing defects was assessed as detailed below in flies genotype: Gal4-elav^c155 UAS-Aβ1-42. […]

rat PC12 cell line = experiment: MTT cell viability assay, cytotoxicity of soluble Aβ oligomers; format: cell-based; conditions: PC12 cells, 24 hours
Method: The cytotoxicity assay was performed with Rat PC12 cells (1.5×10^5 cells/mL) cultured in 96-well microplates (100 μL/well) and incubated overnight at 37° C. Samples with toxic oligomers from above were either dialyzed over night against PBS buffer or diluted with 9 volumes of an aqueous solution containing 33% methanol and 4% acetic acid, and incubated for 2 hours at 4° C. The samples were then centrifuged at 16,000 g for 40 minutes, the supernatant discarded and the pellet was resuspended in 5 mM NaH2PO4, 35 mM NaCl, pH 7.4. To each well we added 100 μL of 0.5 μM Aβ which formed toxic oligomers and prepared mixtures of inhibitors at various concentrations. Each experiment was repeated four times. Following incubation for 24 hours at 37° C., cell viability was evaluated using the MTT assay. Briefly, 20 μL of 5 mg/mL MTT dissolved in PBS was added to each well. […] Finally, color intensity was measured using an ELISA reader at 570 nm.
To further substantiate the inhibition induced by SY-81, it was tested whether SY-81 affects the toxicity of Aβ oligomers towards the rat PC12 cell line. Toxic oligomers were pre-incubated with different concentrations of SY-81 and toxicity was assessed using the MTT cell viability assay.

Aβ1-42 = molecular target: T2, Aβ1-42 (Homo sapiens, UniProt P05067); experiment: Fluorescence anisotropy (polarization) titration with Aβ1-42; format: binding
T2 construct: Amyloid β-peptide(1-42) and amyloid β-peptide(1-40) trifluoroacetate salts; purchased Bachem (Bubendorf, Switzerland); host or cells: synthetic peptide
Method: For the florescence anisotropy studies SY-81 or SY-83 was dissolved in DMSO to a concentration of 1 μM and sonicated for 5 min. The solution was immediately mixed with aliquots of an Aβ1-42 stock solution (20 μM) to varying final polypeptide concentrations. SY-81 and SY-83 polarization measurements were carried out using an ISS K2 fluorimeter. The solutions were excited at 280 nm and emission was monitored at 350 nm. For each single point, at least five measurements were collected and their average values were used for the calculation. All experiments were performed in PBS (pH 7.4).
Increasing amounts of Aβ were titrated into a solution of SY-83 or SY-81 and the anisotropy 15 was determined (FIG. 4A-B).

56 KD Aβ species = experiment: Western blot of soluble brain fractions (6E10 antibody); format: in vivo; conditions: 5XFAD mice, 1 mg intraperitoneally every other day for 4 months

T2 sequence (P05067 672-713 limits assumed): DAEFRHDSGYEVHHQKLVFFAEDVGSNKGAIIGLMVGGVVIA
T1 sequence (P05067 672-711 limits assumed): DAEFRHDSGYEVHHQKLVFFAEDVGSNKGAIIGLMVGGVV

| Structure (SMILES) | pIC50 (Aβ1-40 fibrils; end point experiment, various concentrations, read-out: IC50 of fibril formation) | climbing behavior of control males [1] | toxic effect of the compound on its own (cell viability) (rat PC12 cell line) | pKd (Aβ1-42; fluorescence anisotropy, PBS pH 7.4, read-out: affinity towards Aβ) | reduction in 56 KD Aβ species in soluble brain fractions (56 KD Aβ species) | pIC50 (Aβ1-40 fibrils) | pKd (Aβ1-42) |
| --- | --- | --- | --- | --- | --- | --- | --- |
| O=C1C=C(NC(Cc2c[nH]c3ccccc23)C(=O)O)C(=O)c2ccccc21 (stereo not shown) [SY-81] | 7.30 | No effect | no toxic effect | ~7.05 |  |  |  |
| O=C1C(Cl)=C(NC(Cc2c[nH]c3ccccc23)C(=O)O)C(=O)c2ccccc21 (stereo not shown) [SY-83] |  |  |  |  | 91% | 7.00 | ~6.05 |

— US9272993B2, “Naphthoquinone derivatives useful for prevention of amyloid deposits and treatment of diseases involving amyloidogenesis” (TECHNOLOGY INNOVATION MOMENTUM FUND (ISRAEL) LIMITED …, priority 2008, dated 2016)
